Peptide text beside a SMILES is read from it. * marks the point of attachment. Cbz = O=C(OCc1ccccc1)*

For one test, the target named is T1, SF3B1 (~150 kDa protein) (Homo sapiens, UniProt O75533+Q7RTV0).
T1 construct: Cysteine engagement data from 22Rv1 cells treated; endogenous in cells; host or cells: 22Rv1
Briefly: Gel-based ABPP for SF3B1 cysteine engagement. The test is classed as binding. The following applies: 22Rv1 cells, 1 μM alkyne probe, 1 h. As for the experimental part:
22Rv1 cells were treated with indicated compounds for 24 h, chased with click probe for 1 h in situ, harvested and lysed in PBS with protease inhibitors (cOmplete), and then normalized to 2.0 mg/mL. Reagents for the CuAAC click reaction were pre-mixed prior to addition to the samples (3 μL of click reaction mix for 25 μL of lysate). After 1 hour of click labeling, 4×SDS running buffer was added to samples, which were then analyzed by SDS-PAGE.

The target in test [1] is T2, recombinant FLAG-PSME1 (PSME1_C22) (Homo sapiens, UniProt Q06323).
T2 construct: FLAG (C); expressed in transfected cells; host or cells: HEK293T (lysate treated in vitro)
T2 sequence (Q06323 whole entry): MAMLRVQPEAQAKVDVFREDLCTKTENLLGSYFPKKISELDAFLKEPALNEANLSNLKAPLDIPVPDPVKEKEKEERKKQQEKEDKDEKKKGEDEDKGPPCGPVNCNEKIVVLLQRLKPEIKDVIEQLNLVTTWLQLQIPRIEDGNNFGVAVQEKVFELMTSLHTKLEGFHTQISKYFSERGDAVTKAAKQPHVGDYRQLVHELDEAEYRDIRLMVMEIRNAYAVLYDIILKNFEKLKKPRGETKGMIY
The experiment in a line: Gel-based ABPP for PSME1 cysteine engagement. The test is classed as binding. The following applies: HEK293T lysates, WT or C22A FLAG-PSME1, 2.5 μM, 30 min. As for the experimental part:
C-terminally FLAG-tagged PSME1 WT or C22A were transiently expressed in HEK293T cells, harvested 48 hours later, then cells were divided into aliquots, flash frozen and stored at −80 C. On the day of the experiment, an aliquot of cells were thawed, lysed by sonication in ice-cold PBS supplemented with cOmplete protease inhibitors (1 tablet/10 mL of PBS). normalized to 2.0 mg/mL, and divided into 25 μL aliquots. 1 μL of DMSO or compound (25× stock) was incubated with lysates for 1.5 hours at RT, followed by incubation with 1 μL of 62.5 μM MY-11B click probe (final concentration […]) for an additional 30 minutes. Reagents for the CuAAC click reaction were pre-mixed prior to addition to the samples. After 1 hour of click labeling, 4×SDS running buffer was added to samples, which were then analyzed by SDS-PAGE. ImageJ was used to quantify rhodamine band intensities, and GraphPad PRISM Version 9.0.0 was used to generate IC50 curves (four-parameter variable slope least squares regression).

Test [2] deals with SIINFEKL presentation in E.G7-Ova cells. The experiment in a line: FACS analysis with citric acid wash. The following applies: 4 h treatment, recovery up to 4 h. Type of test: cell-based, mouse. As for the experimental part: (§1) E.G7-Ova cells (2 million/mL) were treated with compounds for 4 hours, washed with PBS, and then washed with 1 mL of 131 mM citric acid for 2 minutes, quenched with 1 mL 66 mM NaH2PO4, and then washed with PBS 3 times. Cells were then resuspended in warm RPMI and allowed to recover for the indicated period, after which cells were washed with PBS and transferred to 96 well plates for staining. Each well was washed with 200 μL PBS, and then stained for 20 minutes with 50 μL of staining solution: 1:1000 fixable near-IR LIVE/DEAD stain (Invitrogen) and 1:200 dilution of anti-SIINFEKL (BioLegend) or anti-Kb (BioLegend) antibody in FACS buffer (2% FBS in PBS supplemented with PenStrep and sterile filtered). Additional wells were used as unstained or singly-stained controls. After staining, cells were washed with PBS, then fixed in 200 μL 4% paraformaldehyde in PBS for 15 minutes. Cells were resuspended in 75 μL FACS buffer and analyzed on a Novocyte flow cytometer. The corresponding data in FIG. 2J are presented as the average percentage of median fluorescence intensity relative to DMSO treated control±SD from n=4 replicates. The corresponding data in FIG. 2K are presented as the average percentage of MFI relative to DMSO treated control±SD from n=3 replicates. Statistical analysis was performed using GraphPad PRISM Version 9.0.0.
(In general: A flow cytometer gives signals particle by particle.)

Test [3] relates to overall MHC-I presentation in E.G7-Ova cells. The experiment in a line: FACS analysis with citric acid wash. The following applies: 4 h treatment, recovery up to 4 h. Type of test: cell-based, mouse. As for the experimental part:
as §1

In a further test the test system is 22Rv1 cells. The experiment in a line: Proliferation assay (CellTiter Glo). The test is classed as cell-based, human. As to conditions: 72 h. As for the experimental part: Cells were seeded at 5000 cells per well (50 μL medium) in 96-well flat bottom white wall plates. After 24 h, 50 μL of medium containing DMSO or compound dilutions (2× final concentration from 1000× stocks) were added to the wells. At the time of compound addition, a reference plate to determine the cell population density at time 0 (TO) was assayed using CellTiter Glo reagent (50 μL added to each well). After 72 h in culture, the remaining plates were assayed using CellTiter Glo. After 30 min of shaking at room temperature, luminescence was analyzed using a CLARIOstar (BMG Labtech) plate reader. Raw values were normalized using GraphPad PRISM software version 9.0.0. Lines of best fit were generated using a four-parameter variable slope least squares regression.
In general terms: In ATP-based viability assays light output follows the ATP content of the culture.

A further test concerns p27. The experiment in a line: anti-p27 western blot. The test is classed as cell-based, human. The following applies: 22Rv1 cells, 24 h. On the technique in general: In western blotting, separated proteins are transferred to a membrane and probed.
The test system of test [4] is mRNA splicing in 22Rv1 cells. Briefly: RNA sequencing, alternative splicing (rMATS). Type of test: cell-based, human. As to conditions: 8 hr, RNA-seq. As for the experimental part: RNA sequencing libraries were prepared using the NEBNext Ultra II RNA Library Prep Kit for Illumina following manufacturer's instructions (NEB, Ipswich, MA, USA). mRNAs were first enriched with Oligo(dT) beads. Enriched mRNAs were fragmented for 15 minutes at 94° C. First strand and second strand cDNAs were subsequently synthesized. cDNA fragments were end repaired and adenylated at 3′ends, and universal adapters were ligated to cDNA fragments, followed by index addition and library enrichment by limited-cycle PCR. The sequencing libraries were validated on the Agilent TapeStation (Agilent Technologies, Palo Alto, CA, USA), and quantified by using Qubit 2.0 Fluorometer (Invitrogen, Carlsbad, CA) as well as by quantitative PCR (KAPA Biosystems, Wilmington, MA, USA). FASTQ files were first trimmed using Trim_galore (v0.6.4) to remove sequencing adapters and low quality (Q<15) reads. Trimmed sequencing reads were aligned to the human Hg19 reference genome (GENCODE, GRCh37.p13) using STAR (v2.7.5). SAM files were subsequently converted to BAM files, sorted, and indexed using samtools (v1.9). […] Read counting across genomic features was performed using featureCounts (part of the subread package; v1.5.0) using the following parameters: -p -T 20 -O -F GTF -t exon. […]
For quantification of alternative RNA splicing, BAM files generated by STAR/Samtools were analyzed using rMATS (v4.1.1) using the GENCODE (v19) GTF annotation for Hg19 (GRCh37.p13) and the following parameters: -t paired --libType fr-unstranded—readLength 150—novelSS. To utilize reads shorted than 150b.p. resulting from adapter and/or QC trimming by trim_galore, rMATS was programmed to accept soft-clipped reads of variable length. Enumeration of isoform counts was performed using only reads that span the splice junction directly. To identify high confidence AS events, events were considered significant if (i) the inclusion level difference was greater than 20% compared to DMSO, (ii) the False Discovery Rate (FDR) was smaller than 0.05, and (iii) there were a minimum of 20 reads mapping to the splice junction. […]

In test [5] the test system is SF3B1 interacting proteins. Briefly: SF3B1 co-immunoprecipitation-MS. Type of test: cell-based, human. As to conditions: HEK293T cells, 5 μM WX-02-23 or 10 nM pladienolide B, 3 h. As for the experimental part: HEK293T cells were treated in situ with DMSO, 5 μM of WX-02-23/WX-02-43, or 10 nM pladienolide B for 3 hours. Cells were harvested, washed with ice-cold PBS, and lysed in ColP lysis buffer (0.5% NP-40, 100 mM EPPS, 150 mM NaCl, cOmplete protease inhibitor). Lysates centrifuged at 16,000 g for 3 minutes, normalized to 2.0 mg/mL and 500 μL of each lysate was aliquoted to a clean eppendorf tube.
Lysates were incubated with 5 μL of anti-IgG or anti-SF3B1 (CST) for 2 hours at 4 C, followed by 1 hour with 25 μL of protein-A agarose beads. Bead were washed twice with ColP lysis buffer, and then twice with 100 mM EPPS, followed by elution with 8 M urea in EPPS at 65 C for 10 min. […] Samples were then trypsinized at 37 C overnight (2 ug of trypsin per sample), then TMT labeled and desalted.

T1 sequence (O75533 whole entry): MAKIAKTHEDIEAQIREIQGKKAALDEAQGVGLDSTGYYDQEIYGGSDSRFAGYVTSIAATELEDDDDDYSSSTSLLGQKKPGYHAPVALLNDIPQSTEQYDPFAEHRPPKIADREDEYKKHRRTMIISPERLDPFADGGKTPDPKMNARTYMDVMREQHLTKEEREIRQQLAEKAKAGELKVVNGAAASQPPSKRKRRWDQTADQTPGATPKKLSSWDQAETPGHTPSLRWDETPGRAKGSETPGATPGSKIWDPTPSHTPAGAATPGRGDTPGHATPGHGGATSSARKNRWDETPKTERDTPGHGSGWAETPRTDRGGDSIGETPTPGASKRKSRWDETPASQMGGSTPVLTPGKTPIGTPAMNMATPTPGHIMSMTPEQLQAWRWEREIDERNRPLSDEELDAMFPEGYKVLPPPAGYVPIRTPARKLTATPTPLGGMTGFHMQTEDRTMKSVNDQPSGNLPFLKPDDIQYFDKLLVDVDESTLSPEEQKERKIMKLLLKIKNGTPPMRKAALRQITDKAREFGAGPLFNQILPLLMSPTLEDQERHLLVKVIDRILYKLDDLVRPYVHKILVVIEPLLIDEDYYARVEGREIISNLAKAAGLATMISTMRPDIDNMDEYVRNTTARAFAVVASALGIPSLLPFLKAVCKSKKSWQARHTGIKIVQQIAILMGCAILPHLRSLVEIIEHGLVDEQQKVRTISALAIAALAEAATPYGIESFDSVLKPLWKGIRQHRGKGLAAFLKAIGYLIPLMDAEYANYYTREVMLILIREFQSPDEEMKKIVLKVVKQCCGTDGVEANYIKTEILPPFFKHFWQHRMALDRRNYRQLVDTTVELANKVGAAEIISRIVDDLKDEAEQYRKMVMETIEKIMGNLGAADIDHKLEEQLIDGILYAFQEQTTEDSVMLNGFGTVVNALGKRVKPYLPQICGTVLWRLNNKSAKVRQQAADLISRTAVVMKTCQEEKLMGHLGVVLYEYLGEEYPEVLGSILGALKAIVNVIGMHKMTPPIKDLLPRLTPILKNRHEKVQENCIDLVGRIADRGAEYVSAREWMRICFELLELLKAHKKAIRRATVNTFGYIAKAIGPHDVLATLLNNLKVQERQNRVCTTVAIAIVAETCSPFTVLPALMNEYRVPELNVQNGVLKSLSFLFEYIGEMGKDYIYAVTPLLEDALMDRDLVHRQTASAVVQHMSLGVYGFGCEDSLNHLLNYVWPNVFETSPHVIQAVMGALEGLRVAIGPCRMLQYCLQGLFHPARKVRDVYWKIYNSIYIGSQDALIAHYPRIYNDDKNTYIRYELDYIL
T1 sequence (Q7RTV0 whole entry): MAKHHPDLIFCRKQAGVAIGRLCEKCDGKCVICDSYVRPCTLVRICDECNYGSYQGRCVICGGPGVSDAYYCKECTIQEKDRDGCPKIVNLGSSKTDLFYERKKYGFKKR
T1 sequence (Q15393 whole entry partner): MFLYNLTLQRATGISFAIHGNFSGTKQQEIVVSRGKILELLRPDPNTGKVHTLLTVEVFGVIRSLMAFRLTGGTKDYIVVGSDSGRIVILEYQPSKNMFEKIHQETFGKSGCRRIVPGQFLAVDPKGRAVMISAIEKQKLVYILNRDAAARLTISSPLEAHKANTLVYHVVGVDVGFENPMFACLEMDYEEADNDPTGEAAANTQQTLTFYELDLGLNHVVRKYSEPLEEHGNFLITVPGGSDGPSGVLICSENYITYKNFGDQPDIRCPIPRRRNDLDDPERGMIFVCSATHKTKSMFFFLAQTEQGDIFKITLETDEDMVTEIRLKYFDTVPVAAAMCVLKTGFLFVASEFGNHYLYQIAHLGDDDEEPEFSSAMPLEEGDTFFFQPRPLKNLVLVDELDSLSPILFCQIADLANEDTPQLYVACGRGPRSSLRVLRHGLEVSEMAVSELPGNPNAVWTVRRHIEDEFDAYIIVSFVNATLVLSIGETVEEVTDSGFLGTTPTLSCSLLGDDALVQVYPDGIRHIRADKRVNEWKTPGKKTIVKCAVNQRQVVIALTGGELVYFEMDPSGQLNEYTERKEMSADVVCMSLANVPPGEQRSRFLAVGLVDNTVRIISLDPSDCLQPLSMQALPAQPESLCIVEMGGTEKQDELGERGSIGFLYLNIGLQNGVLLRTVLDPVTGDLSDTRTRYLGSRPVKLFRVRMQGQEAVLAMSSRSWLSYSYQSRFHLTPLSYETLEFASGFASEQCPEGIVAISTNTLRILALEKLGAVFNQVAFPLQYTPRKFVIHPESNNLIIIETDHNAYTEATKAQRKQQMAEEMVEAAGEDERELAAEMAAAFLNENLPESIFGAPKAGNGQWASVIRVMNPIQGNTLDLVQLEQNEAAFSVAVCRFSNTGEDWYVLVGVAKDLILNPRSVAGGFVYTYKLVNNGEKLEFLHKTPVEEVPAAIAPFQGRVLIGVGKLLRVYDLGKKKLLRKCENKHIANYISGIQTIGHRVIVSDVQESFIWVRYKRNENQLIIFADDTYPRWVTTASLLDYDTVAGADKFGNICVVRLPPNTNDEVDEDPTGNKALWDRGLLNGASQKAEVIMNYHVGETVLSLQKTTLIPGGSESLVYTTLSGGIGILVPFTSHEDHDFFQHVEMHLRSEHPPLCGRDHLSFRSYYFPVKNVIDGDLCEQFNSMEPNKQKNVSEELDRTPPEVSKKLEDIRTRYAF
T1 sequence (Q9BWJ5 whole entry partner): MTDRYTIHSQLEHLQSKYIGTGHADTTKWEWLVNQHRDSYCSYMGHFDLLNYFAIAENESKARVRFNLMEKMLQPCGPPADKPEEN

Regarding `C#CCOc1ccc2[nH]c3c(c2c1)C[C@@H](C(=O)OC)N(C(=O)C=C)[C@@H]3c1ccc2c(c1)OCO2` [WX-01-10, methyl (1R,3S)-2-acryloyl-1-(benzo[d][1,3]dioxol-5-yl)-6-(prop-2-yn-1-yloxy)-2,3,4,9-tetra-hydro-1H-pyrido[3,4-b]indole-3-carboxylate], the “alkyne probe labeling of ~150 kDa protein” value on SF3B1 (~150 kDa protein) was “labeled an ˜150 kDa protein”.

On to `C#Cc1ccc([C@H]2CN(C(=O)C=C)[C@H]2C(=O)Nc2cccc3cccnc23)cc1` [MY-11B, (2R,3S)-1-acryloyl-3-(4-ethynylphenyl)-N-(quinolin-8-yl)azetidine-2-carboxamide], for which, in test [1], the “alkyne probe labeling of PSME1_C22 (CuAAC, azide-rhodamine)” value was “site-specific and stereoselective engagement”.

Regarding `CC(C)C[C@@H](C=O)NC(=O)[C@H](CC(C)C)NC(=O)[C@H](CC(C)C)NC(=O)OCc1ccccc1` [MG132, reference compound] (Cbz-Leu-Leu-Leu-aldehyde), the “SIINFEKL presentation after acid wash” value in test [2] is “suppressed both SIINFEKL peptide and MHC-I presentation”. Moreover, the “overall MHC-I presentation after acid wash” value in test [3] was “suppressed both SIINFEKL peptide and MHC-I presentation”.

With pladienolide B [reference compound], the “anti-proliferative effect” value with 22Rv1 cells is “strong anti-proliferative activity”. Also, the p27 expression result in the test on p27 is listed as “induced expression of p27”. In addition, the mRNA splicing changes entry in test [4] is “induction of both intron retention and exon skipping events”. Moreover, the “SF3B1 interactions (DDX42 association)” value in test [5] is reported as “similar, but not identical reshaping of SF3B1 interactions”.
